Laboratory results: article PMC6675120, “Potent and selective inhibitors for M32 metallocarboxypeptidases identified from high-throughput screening of anti-kinetoplastid chemical boxes” (PLoS Neglected Tropical Diseases, 2019)

Key:
TbMCP-1 = TbMCP-1 (Trypanosoma brucei, UniProt Q386R0); test: Continuous fluorogenic (FRET) TbMCP-1 assay with Abz-RFFK(Dnp)-OH, primary and secondary screening; format: biochemical; conditions: for TbMCP-1 2º/1º ratio: secondary (31,5 µM) / primary (25 µM) inhibition; for TbMCP-1 Primary screening Inhibition (%): single inhibitor concentration 25 µM; for TbMCP-1 Secondary screening Inhibition (%): single inhibitor concentration 31,5 µM; for TbMCP-1 Hill Slope: four-parameter Hill fit of dose-response curve
Chain of TbMCP-1 (Q386R0 entry or part of it): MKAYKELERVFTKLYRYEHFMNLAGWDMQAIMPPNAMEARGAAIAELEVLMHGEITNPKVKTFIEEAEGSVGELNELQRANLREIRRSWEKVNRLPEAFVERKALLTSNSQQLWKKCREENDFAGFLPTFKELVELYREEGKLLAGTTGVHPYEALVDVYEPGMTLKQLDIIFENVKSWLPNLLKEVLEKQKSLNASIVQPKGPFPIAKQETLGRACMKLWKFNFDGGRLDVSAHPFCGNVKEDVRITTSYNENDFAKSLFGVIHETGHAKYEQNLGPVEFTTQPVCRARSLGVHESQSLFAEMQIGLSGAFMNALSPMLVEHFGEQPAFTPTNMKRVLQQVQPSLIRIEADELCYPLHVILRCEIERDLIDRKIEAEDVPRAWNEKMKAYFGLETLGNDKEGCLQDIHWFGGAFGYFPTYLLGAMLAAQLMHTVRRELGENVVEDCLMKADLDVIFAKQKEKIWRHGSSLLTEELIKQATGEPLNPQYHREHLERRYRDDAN
Procedure: (§1) TcMCP-1 (MEROPS ID: M32.003) and TbMCP-1 were expressed as GST fusion proteins in E. coli BL21 (DE3) Codon Plus and purified as previously described.
(§2) TbMCP-1 and TcMCP-1 activities were assayed fluorometrically with Abz-RFFK(Dnp)-OH and Abz-LKFK(Dnp)-OH substrates, respectively, in 100 mM MOPS pH 7,2 containing 0,01% Triton X-100. Assays were performed in solid black 384-well plates (final reaction volume ~80 μL) and the hydrolysis of the K(Dnp)-OH group was monitored continuously at 30 °C with a Beckman Coulter DTX 880 Multimode Reader (Radnor, Pennsylvania, USA) using standard 320 nm excitation and 420 nm emission filter set.
(§3) In all cases, EDTA (final concentration 31,25 mM) was used as positive inhibition control.
(§4) Then, 40 μL of 100 mM MOPS, 0,01% Triton X-100 pH 7,2 containing TbMCP-1 (2,50 nM) or TcMCP-1 (0,34 nM) were added to each well, plates were homogenized (30 seg, orbital, medium intensity) and each well subjected to a single autofluorescence read (ex/em = 320/420 nm). Plates were incubated in darkness for 15 min at 30 °C and then 40 μL of Abz-RFFK(Dnp)-OH (4 μM) or Abz-LKFK(Dnp)-OH (0,8 μM) in assay buffer were added to each well to start the reaction. After homogenization (30 seg, orbital, medium intensity), the fluorescence of the Abz group (ortho-aminobenzoic acid) (ex/em = 320/420 nm) was acquired kinetically for each well (8 read cycles, one cycle every 300 seconds). Considering our previous experiences, the auto-fluorescent cut-off was arbitrarily set at 2x10^5 RFU to discard highly interfering compounds. All compounds were assayed in singlet (without replicates) due to the limited availability of stocks.
(§5) Raw screening measurements were used to determine the slope (dF/dt) of progression curves by linear regression for control and non-interfering compound wells. In the case of control-dependent hit selection criteria, percent inhibition percentage (%Inh) was calculated for each compound according to the following equation: Inh=100∙[1−(dF/dt^WELL−μ^C−)/(μ^C+−μ^C−)] (1) where dF/dt^WELL represents the slope of each compound well and μ^C+ and μ^C− the average of MCP (no-inhibition) and substrate (no-enzyme) controls, respectively.
(§6) To avoid any positional and/or association bias, we randomly defined the row position for each compound. One μL of compounds stock (10 mM in DMSO) and EDTA (31,25 mM) were added to the first well of column 1, followed by addition of 40 μL of 100 mM MOPS, 0,01% Triton X-100 pH 7,2 buffer. After addition of 20 μL of the same buffer to subsequent wells of the plate, 22 serial 2-fold dilutions were made horizontally. The last two positions of every row were used, alternatively, for C^+ and C^− controls to reduce any positional and/or association bias. Then, 20 μL of activity buffer containing TbMCP-1 or TcMCP-1 were added to each well, except for those corresponding to C^−; completed with 20 μL of activity buffer. After homogenization, 15 minutes of incubation at 30°C and autofluorescence measurement, the substrate (in activity buffer) was added to the previous mix. Data collection and processing were performed exactly as described above. Percentage of M32 MCPs residual activity was calculated for each condition according to the following equation: %Res.Act^MCP=100∙[(dF/dt^WELL−μ^C−)/(μ^C+−μ^C−)] (2) where dF/dt^WELL represents the slope of each compound well and μ^C+ and μ^C− the average of MCP (no-inhibition) and substrate (no-enzyme) controls, respectively.

TcMCP-1 = TcMCP-1 (Trypanosoma cruzi, UniProt Q6ZXC0); test: Continuous fluorogenic (FRET) TcMCP-1 assay with Abz-LKFK(Dnp)-OH, primary and secondary screening; format: biochemical; conditions: for TcMCP-1 Hill Slope: four-parameter Hill fit of dose-response curve; for TcMCP-1 2º/1º ratio: secondary (31,5 µM) / primary (25 µM) inhibition; for TcMCP-1 Primary screening Inhibition (%): single inhibitor concentration 25 µM; for TcMCP-1 Secondary screening Inhibition (%): single inhibitor concentration 31,5 µM
Chain of TcMCP-1 (Q6ZXC0 entry or part of it): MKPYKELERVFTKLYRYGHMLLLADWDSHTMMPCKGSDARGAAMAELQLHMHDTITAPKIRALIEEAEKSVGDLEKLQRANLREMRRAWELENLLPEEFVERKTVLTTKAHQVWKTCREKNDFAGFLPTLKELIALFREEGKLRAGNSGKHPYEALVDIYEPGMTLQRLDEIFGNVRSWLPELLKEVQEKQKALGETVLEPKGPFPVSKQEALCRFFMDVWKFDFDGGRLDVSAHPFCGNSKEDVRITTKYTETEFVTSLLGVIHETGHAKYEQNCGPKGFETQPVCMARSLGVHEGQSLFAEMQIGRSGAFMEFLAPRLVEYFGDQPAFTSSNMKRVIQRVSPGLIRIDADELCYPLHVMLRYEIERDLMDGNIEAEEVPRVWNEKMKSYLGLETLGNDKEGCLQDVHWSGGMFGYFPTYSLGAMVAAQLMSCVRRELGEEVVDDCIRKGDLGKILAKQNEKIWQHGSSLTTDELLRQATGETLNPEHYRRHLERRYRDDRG
Procedure: as §1, §2, §3, §4, §5
as §6, with “Compounds selected from primary screening were re-tested in a dose-response manner (final concentration ranging from […] to 62,5 μM) using identical assay conditions. To” for “To”

Row | Structure (SMILES) | TbMCP-1 2º/1º ratio (TbMCP-1) | TbMCP-1 Primary screening Inhibition (%) (TbMCP-1) | TbMCP-1 Secondary screening Inhibition (%) (TbMCP-1) | IC50 (TcMCP-1) [µM] | TcMCP-1 Hill Slope (TcMCP-1) | TcMCP-1 2º/1º ratio (TcMCP-1) | TcMCP-1 Primary screening Inhibition (%) (TcMCP-1) | TcMCP-1 Secondary screening Inhibition (%) (TcMCP-1) | IC50 (TbMCP-1) [µM] | TbMCP-1 Hill Slope (TbMCP-1)
1 | O=C(NCC1CCCCC1)c1cc(=O)c2ccccc2o1 [TCMDC-123621] | -0,05 | 44,99% | -2,11% | – | – | – | – | – | – | –
2 | CC(C)N(C(=O)CN1C(=O)C(N)C(=O)N(c2ccccc2)c2ccccc21)c1ccccc1 (stereo not shown) [TCMDC-143071] | – | – | – | 38.9 | -1,235 | 0,63 | 45,44% | 28,65% | – | –
3 | COc1cccc(-c2cc(C(F)(F)F)nc(-n3ccc([N+](=O)[O-])n3)n2)c1 [TCMDC-143105] | – | – | – | – | – | 0,34 | 52,36% | 17,76% | – | –
4 | N#Cc1cc([N+](=O)[O-])ccc1NC1CCCCCC1 [TCMDC-143143] | 1,61 | 41,27% | 66,27% | – | – | – | – | – | 21.8 | -1,466
5 | Cc1c([N+](=O)[O-])c(C(=O)Nc2sc3c(c2C#N)CCC(C)C3)nn1C (stereo not shown) [TCMDC-143155] | 0,23 | 44,57% | 10,36% | – | – | – | – | – | – | –
6 | Cl.Cl.O=c1ccc2ccc(F)c3c2n1C[C@H]3CN1CCN(CC(O)c2cc3c(cn2)OCS3)CC1 (stereo partly shown) [TCMDC-143158] | 1,19 | 44,84% | 53,51% | – | – | – | – | – | 27.6 | -1,014
7 | O=C(c1cc2cc(Cl)ccc2[nH]1)N1CCCCC1c1cccnc1 (stereo not shown) [TCMDC-143159] | 0,25 | 52,96% | 13,07% | – | – | – | – | – | – | –
8 | CC1=C(C(=O)Nc2ccc(Cl)cc2)C(c2ccncc2)n2ncc(C(=O)Nc3ccccc3)c2N1 (stereo not shown) [TCMDC-143187] | 0,50 | 48,70% | 24,44% | – | – | – | – | – | > 60 | –
9 | Cc1ccc2c(c1)-c1onc(C(=O)N3CCCCC3c3cccnc3)c1CO2 (stereo not shown) [TCMDC-143191] | 0,78 | 88,97% | 69,40% | – | – | – | – | – | 16.1 | -1,267
10 | Cn1ccnc1CN1CCc2[nH]cnc2C1c1ccccc1OCc1ccccc1 (stereo not shown) [TCMDC-143242] | – | – | – | 26.5 | -1,237 | 1,02 | 51,89% | 52,68% | – | –
11 | O=C(N[C@H](CO)c1ccccc1)c1ccc(-c2c[nH]c3nccc(C(F)(F)F)c23)s1 [TCMDC-143254] | 0,78 | 45,94% | 35,87% | – | – | – | – | – | 43.4 | -0,8163
12 | O=C(NNC(=O)c1ccccn1)c1ccc(-c2ccccc2)cc1 [TCMDC-143263] | – | – | – | 40.7 | -0,9946 | 0,31 | 48,44% | 14,84% | – | –
13 | CN(C)S(=O)(=O)c1ccc(Cl)c(C(=O)Nc2nc(-c3ccccn3)cs2)c1 [TCMDC-143265] | 0,40 | 59,46% | 23,62% | – | – | – | – | – | 44.2 | -2,036
14 | CCC1Oc2cc(S(=O)(=O)N(C)CC(=O)N3CCc4ccccc4C3)c(C)cc2NC1=O (stereo not shown) [TCMDC-143332] | 1,03 | 55,90% | 57,63% | – | – | – | – | – | 23.3 | -1,063
15 | CC(=O)Nc1cccc(Nc2ncnc3nc[nH]c23)c1 [TCMDC-143399] | 0,19 | 43,27% | 8,15% | – | – | – | – | – | – | –
16 | CN(C)c1ccc(-c2cc3nccnc3c(OC[C@H]3CCCNC3)n2)cn1.Cl [TCMDC-143408] | – | – | – | 32.9 | -1,153 | 1,06 | 46,88% | 49,75% | – | –
17 | CC(C)Oc1cccc(N2CCC(C(=O)N3CCCN(C(C)C)CC3)CC2)c1.Cl [TCMDC-143432] | – | – | – | 26.3 | -0,6129 | 1,27 | 42,37% | 53,96% | – | –
18 | Cc1c(Nc2cc(C3CC3)n[nH]2)ccc(C#N)c1Cl.O=C(O)C(F)(F)F [TCMDC-143454] | 0,63 | 52,66% | 33,23% | – | – | – | – | – | > 60 | –
19 | CC(Cn1ccnc1)NC(=O)COc1ccc(Cl)c(Cl)c1 (stereo not shown) [TCMDC-143479] | – | – | – | – | – | 0,31 | 42,39% | 13,15% | – | –
20 | COc1ccc(S(=O)(=O)Nc2ccc(CN3CCN(C(=O)c4cccc(C#N)c4)CC3)cc2)cc1.O=C(O)C(F)(F)F [TCMDC-143496] | – | – | – | 34.9 | -0,822 | 1,09 | 41,52% | 45,37% | – | –
21 | Cc1cc(C#N)c([N+](=O)[O-])cc1Br [TCMDC-143541] | 0,20 | 44,26% | 8,89% | – | – | – | – | – | – | –
22 | O=C(O)C(F)(F)F.O=C(O)C(F)(F)F.O=C1COC(c2ccccc2)(c2ccccc2)CN1C1CCN(Cc2ccc(-n3ccnc3)cc2)CC1 [TCMDC-143543] | – | – | – | > 60 | – | 0,72 | 43,40% | 31,11% | – | –
23 | COc1cccc(S(=O)(=O)Nc2ccc3c(c2)CC(N2CCC(NC(=O)C4CC4)CC2)C3)c1 (stereo not shown) [TCMDC-143583] | – | – | – | – | – | -0,15 | 77,30% | -11,25% | – | –
24 | CC(C)Oc1ccc(C(=O)Nc2ccc(N3CCOCC3)c(Cl)c2)cc1 [TCMDC-143592] | – | – | – | 27.9 | -0,8919 | 1,03 | 56,55% | 58,11% | – | –
25 | Cl.Cl.O=c1cc(NCCCNCc2cc(C(F)(F)F)cs2)[nH]c2ccccc12 [TCMDC-143645] | 1,27 | 42,78% | 54,13% | – | – | – | – | – | 20.8 | -1,127
